Experimental data published in patent publication US9580330B2, “Anhydrous, amorphous and porous magnesium carbonates and methods of production thereof” (DISRUPTIVE MATERIALS AB, priority 2012, dated 2017).

Columns and labels:
[1] = Drug release measurement, USP-2 dissolution bath; format: physicochemical; conditions: phosphate buffer pH 6.8, 37° C., 50 rpm, 17.5 mg ibuprofen in 500 mL
Experimental: Drug Release Measurement: The release of ibuprofen was carried out in a USP-2 dissolution bath (Sotax AT7 Smart, Sotax AG, Switzerland) equipped with 1000 mL vessels (37° C., 50 rpm). Samples with a total drug content of 17.5 mg ibuprofen were placed in vessels containing 500 mL phosphate buffer (pH=6.8). […] Aliquots of 3 mL were withdrawn from each vessel at regular intervals for 125 min and the drug concentration in the liquid samples was analysed using UV/vis absorbance spectroscopy (1650PC, Shimadzu Corporation, Kyoto, Japan).

[2] = Thermal gravimetric analysis (TGA) of Example 28 samples; format: physicochemical; conditions: air flow, 3 K min^−1
Experimental: Thermal gravimetric analysis (TGA) was carried out on a Mettler Toledo, model TGA/SDTA851e, under an air flow in an inert alumina cup. The samples were heated from room temperature to 600° C. with a heating rate of 3 K min^−1.

Compound: CC(C)Cc1ccc(C(C)C(=O)O)cc1 (centres unmarked) [free ibuprofen, ibuprofen]
- time until about 50% of the ibuprofen is dissolved [1]: about 30 minutes
- decomposition temperature of ibuprofen [2]: about 200 °C
